Results taken from the NIST ThermoML archive (doi:10.1016/j.fluid.2005.07.017).
± gives the expanded uncertainty stated by the source.

Experiment: xn = mol fraction of the nth substance listed
Conditions: Liquid, Vibrating tube method

c1ccsc1 [thiophene] + O=C=O
Conditions | mass density [kg/m3]
332.85 K, 13009 kPa, x2 = 0.199 | 1012.87 ± 0.43
332.85 K, 13971 kPa, x2 = 0 | 1030.09 ± 0.44
332.85 K, 14005 kPa, x2 = 0.199 | 1014.1 ± 0.43
332.85 K, 15006 kPa, x2 = 0 | 1031.04 ± 0.44
332.85 K, 15042 kPa, x2 = 0.199 | 1015.31 ± 0.43
332.85 K, 15990 kPa, x2 = 0 | 1032.01 ± 0.44
332.85 K, 16037 kPa, x2 = 0.199 | 1016.53 ± 0.43
332.85 K, 17034 kPa, x2 = 0.199 | 1017.71 ± 0.43
332.85 K, 17050 kPa, x2 = 0 | 1033.03 ± 0.44
332.85 K, 17976 kPa, x2 = 0 | 1033.88 ± 0.44
332.85 K, 18013 kPa, x2 = 0.199 | 1018.85 ± 0.43
332.85 K, 19004 kPa, x2 = 0.199 | 1019.98 ± 0.43
332.85 K, 19018 kPa, x2 = 0 | 1034.92 ± 0.44
332.85 K, 20016 kPa, x2 = 0.199 | 1021.13 ± 0.43
332.93 K, 10438 kPa, x2 = 0.9217 | 603.48 ± 1.4
332.93 K, 11001 kPa, x2 = 0.9217 | 635.42 ± 1.1
332.93 K, 12001 kPa, x2 = 0.9217 | 673.08 ± 0.95
332.93 K, 13005 kPa, x2 = 0.9217 | 700.08 ± 0.83
332.93 K, 13949 kPa, x2 = 0.9217 | 720.24 ± 0.76
332.93 K, 15012 kPa, x2 = 0.9217 | 738.73 ± 0.71
332.93 K, 16019 kPa, x2 = 0.9217 | 754.17 ± 0.68
332.93 K, 17014 kPa, x2 = 0.9217 | 767.1 ± 0.65
332.93 K, 18009 kPa, x2 = 0.9217 | 778.74 ± 0.63
332.93 K, 18964 kPa, x2 = 0.9217 | 789.26 ± 0.61
332.93 K, 20027 kPa, x2 = 0.9217 | 798.89 ± 0.6
332.93 K, 21018 kPa, x2 = 0.9217 | 807.65 ± 0.59
332.93 K, 22031 kPa, x2 = 0.9217 | 815.99 ± 0.59
332.93 K, 23019 kPa, x2 = 0.9217 | 823.51 ± 0.57
332.93 K, 23954 kPa, x2 = 0.9217 | 830.07 ± 0.56
332.93 K, 25005 kPa, x2 = 0.9217 | 836.64 ± 0.55
332.96 K, 6987 kPa, x2 = 0.3818 | 977.03 ± 0.43
332.96 K, 8041 kPa, x2 = 0.3818 | 979.02 ± 0.43
332.96 K, 9012 kPa, x2 = 0.3818 | 980.85 ± 0.43
332.96 K, 10018 kPa, x2 = 0.3818 | 982.65 ± 0.43
332.96 K, 11007 kPa, x2 = 0.3818 | 984.44 ± 0.43
332.96 K, 12018 kPa, x2 = 0.3818 | 986.2 ± 0.43
332.96 K, 13030 kPa, x2 = 0.3818 | 987.96 ± 0.43
332.96 K, 13998 kPa, x2 = 0.3818 | 989.61 ± 0.43
332.96 K, 14969 kPa, x2 = 0.3818 | 991.25 ± 0.43
332.96 K, 16045 kPa, x2 = 0.3818 | 993.04 ± 0.42
332.96 K, 17024 kPa, x2 = 0.3818 | 994.61 ± 0.42
332.96 K, 18020 kPa, x2 = 0.3818 | 996.22 ± 0.42
332.96 K, 19050 kPa, x2 = 0.3818 | 997.85 ± 0.42
333.04 K, 9091 kPa, x2 = 0.6996 | 929.67 ± 0.44
333.04 K, 10017 kPa, x2 = 0.6996 | 932.84 ± 0.61
333.04 K, 11036 kPa, x2 = 0.6996 | 936.19 ± 0.59
333.04 K, 11989 kPa, x2 = 0.6996 | 939.22 ± 0.56
333.04 K, 13024 kPa, x2 = 0.6996 | 942.4 ± 0.54
333.04 K, 14004 kPa, x2 = 0.6996 | 945.28 ± 0.53
333.04 K, 14904 kPa, x2 = 0.6996 | 947.84 ± 0.52
333.04 K, 16043 kPa, x2 = 0.6996 | 951.03 ± 0.51
333.04 K, 17013 kPa, x2 = 0.6996 | 953.62 ± 0.5
333.04 K, 18048 kPa, x2 = 0.6996 | 956.36 ± 0.5
333.04 K, 19011 kPa, x2 = 0.6996 | 958.88 ± 0.73
333.15 K, 101 kPa, x2 = 0 | 1014.58 ± 0.44
342.66 K, 5097 kPa, x2 = 0.199 | 988.63 ± 0.43
342.66 K, 6031 kPa, x2 = 0.199 | 989.99 ± 0.43
342.66 K, 7084 kPa, x2 = 0.199 | 991.48 ± 0.43
342.66 K, 8010 kPa, x2 = 0.199 | 992.78 ± 0.43
342.66 K, 9020 kPa, x2 = 0.199 | 994.19 ± 0.43
342.66 K, 10077 kPa, x2 = 0.199 | 995.61 ± 0.43
342.66 K, 11049 kPa, x2 = 0.199 | 996.93 ± 0.43
342.66 K, 11932 kPa, x2 = 0.199 | 998.15 ± 0.43
342.66 K, 13009 kPa, x2 = 0.199 | 999.54 ± 0.43
342.66 K, 13997 kPa, x2 = 0.199 | 1000.84 ± 0.43
342.66 K, 14996 kPa, x2 = 0.199 | 1002.14 ± 0.43
342.66 K, 16043 kPa, x2 = 0.199 | 1003.48 ± 0.43
342.66 K, 17018 kPa, x2 = 0.199 | 1004.66 ± 0.43
342.66 K, 18018 kPa, x2 = 0.199 | 1005.93 ± 0.43
342.66 K, 19016 kPa, x2 = 0.199 | 1007.17 ± 0.43
342.66 K, 20032 kPa, x2 = 0.199 | 1008.42 ± 0.43
342.69 K, 9071 kPa, x2 = 0.5661 | 923.94 ± 0.44
342.69 K, 10000 kPa, x2 = 0.5661 | 926.85 ± 0.44
342.69 K, 11013 kPa, x2 = 0.5661 | 929.94 ± 0.44
342.69 K, 11994 kPa, x2 = 0.5661 | 932.85 ± 0.44
342.69 K, 13024 kPa, x2 = 0.5661 | 935.81 ± 0.44
342.69 K, 13996 kPa, x2 = 0.5661 | 938.48 ± 0.43
342.69 K, 15008 kPa, x2 = 0.5661 | 941.2 ± 0.43
342.69 K, 16016 kPa, x2 = 0.5661 | 943.82 ± 0.43
342.69 K, 17021 kPa, x2 = 0.5661 | 946.37 ± 0.43
342.69 K, 18030 kPa, x2 = 0.5661 | 948.87 ± 0.43
342.69 K, 19004 kPa, x2 = 0.5661 | 951.23 ± 0.43
342.77 K, 1039 kPa, x2 = 0 | 1004.75 ± 0.44
342.77 K, 2072 kPa, x2 = 0 | 1005.93 ± 0.44
342.77 K, 3033 kPa, x2 = 0 | 1007.02 ± 0.44
342.77 K, 4023 kPa, x2 = 0 | 1008.17 ± 0.44
342.77 K, 5027 kPa, x2 = 0 | 1009.26 ± 0.44
342.77 K, 6033 kPa, x2 = 0 | 1010.36 ± 0.44
342.77 K, 7008 kPa, x2 = 0 | 1011.44 ± 0.44
342.77 K, 7998 kPa, x2 = 0 | 1012.5 ± 0.44
342.77 K, 9005 kPa, x2 = 0 | 1013.59 ± 0.44
342.77 K, 10000 kPa, x2 = 0 | 1014.65 ± 0.44
342.77 K, 10963 kPa, x2 = 0 | 1015.65 ± 0.44
342.77 K, 12009 kPa, x2 = 0 | 1016.72 ± 0.44
342.77 K, 13023 kPa, x2 = 0 | 1017.82 ± 0.44
342.77 K, 13928 kPa, x2 = 0 | 1018.74 ± 0.44
342.77 K, 15009 kPa, x2 = 0 | 1019.83 ± 0.44
342.77 K, 15998 kPa, x2 = 0 | 1020.79 ± 0.44
342.77 K, 17025 kPa, x2 = 0 | 1021.8 ± 0.44
342.77 K, 17995 kPa, x2 = 0 | 1022.8 ± 0.44
342.77 K, 19013 kPa, x2 = 0 | 1023.79 ± 0.44
342.77 K, 20001 kPa, x2 = 0 | 1024.73 ± 0.44
342.91 K, 7074 kPa, x2 = 0.3818 | 959.84 ± 0.43
342.91 K, 7993 kPa, x2 = 0.3818 | 961.78 ± 0.43
342.91 K, 8982 kPa, x2 = 0.3818 | 963.81 ± 0.43
342.91 K, 10027 kPa, x2 = 0.3818 | 965.93 ± 0.43
